Assay results from patent publication US20040014028A1, “Method for determination of protective epitopes for vaccination, diagnosis and vaccine quality control” (Wolf Biotech, priority 2002, published 2004).

Experiments:
[1] = system: anti-peptide S2-affinity purified antibodies; test: Synthetic peptide ELISA on maleimide-activated plates with anti-peptide S2-affinity purified antibodies; type: binding, swine; settings: for recognition by S2 affinity purified antibodies in ELISA: synthetic peptides bound to MBS coated plates; for ELISA signal (OD) with anti-peptide S2 affinity-purified antibodies: synthetic peptide bound to ELISA plate
Description: (§1) In FIG. 7, there is shown the reactivity of anti peptides-affinity purified antibodies to synthetic peptides bound to MBS coated ELISA plates. Results are expressed as corrected OD405 (OD tested peptide-OD irrelevant peptide P7, Table 1).
(§2) Several deduced peptides and variations of them were synthesized using solid phase technology and Fmoc standart chemistry. To perform ELISAs with these synthetic peptides, they were diluted in PBS pH 6.8 to a final concentration of 50 μg/ml, and then were used to coat Reacti-Bind Maleimide-Activated Plates (Pierce, Rockford, Ill.) for 5 hours at room temperature. Remaining maleimide groups were blocked by a 1-hour incubation with cysteine-HCl 10 μg/ml diluted in PBS pH 6.8. An extra blocking step was carried out by incubating the plate with PBS containing 10% milk. Sera or affinity-purified antibodies were added in different dilutions and incubated for 1 hour at room temperature.
(§3) Based on the previous results, anti-epitope A and anti-epitope B antibodies were affinity purified from a pool of precipitated antibodies with a SN titer of 1:512 using Keyhole-limpet hemocianine (KLH)-conjugated peptides coupled to CNBr-activated Sepharose as ligand as it is known in the art. R4N/R1N-affinity purified antibodies recognized peptides R4N, peptide R1N and peptide S1. All these peptides contain an (A/V)LVN motif.

[2] = system: R4N/R1N-affinity purified antibodies; test: Synthetic peptide ELISA on maleimide-activated plates with R4N/R1N-affinity purified antibodies; type: binding, swine; settings: synthetic peptides bound to MBS coated plates
Description: as §1, §2, §3

swine neutralizing serum = test: Synthetic peptide ELISA with swine anti-PRRSV neutralizing serum; type: binding; settings: NS from different immunized swine
Description: (§4) In FIG. 6 there is show the reactivity of Monoclonal antibody ISU25-C1 and swine anti-PRRSV hyperimmune sera to synthetic peptides bound to MBS coated ELISA plates. Results are expressed as corrected Optical density (OD) at 405 nm (OD405): (OD tested peptide-OD irrelevant peptide P7, Table 1). SN titer was determined against PRRSV Iowa strain. ELISA s/p ratio was determined as the difference in the optical density (OD) of the test serum between viral and control antigens divided by the difference in the OD of the positive reference between viral and control antigens. Serums 3, 5, 6 y 8 are from PRRSV-hyperimmunized pigs, serum 19 is a negative control, ISU 25-C1 and ISU 19A1 (Yang, L et al, Arch. Virol. 145:1599-1619, 2000) are anti-PRRSV neutralizing and non-neutralizing monoclonal antibodies respectively.
as §2

[3] = system: anti-peptide S2-affinity purified antibodies; test: Inhibition by synthetic peptides of binding of anti-peptide S2-affinity purified antibodies to phage clone S2-4; design: species or system swine; settings: serial five-fold dilutions of peptide
Description: In FIG. 8, there is shown the inhibition by synthetic peptides of the binding of anti-peptide S2-affinity purified antibodies to phage clone S2-4. Serial five-fold dilutions of synthetic peptides S2 (filled squares), S3 (X) or irrelevant peptide P7(filled circle) were used. Results are expressed as the percentage of the signal obtained with anti-peptide S2 affinity purified antibodies in wells to which no peptides were added. Values are the average of four readings.
This stresses the importance of motif SHF in the composition of epitope B. Anti-peptide S2 affinity-purified antibodies, recognized to a similar extent peptides S2 (OD: 0.336) and S6 (OD: 0.369), confirming that residues H^38, Q^40, I^42, Y^43 and N^44 constitute the core of epitope B.

[4] = system: Monoclonal antibody ISU25-C1; test: Synthetic peptide ELISA with monoclonal antibody ISU25-C1; type: binding, mouse
Description: as §4
as §2, with “Sera or affinity-purified antibodies were added in different dilutions and incubated for 1 hour at room temperature.” left out

[5] = system: Monoclonal antibody ISU25-C1; test: Competition ELISA: inhibition by synthetic peptides of binding of monoclonal antibody ISU25-C1 to PRRSV-coated strips; design: species or system mouse; settings: peptide concentration 333 μM
Source text: In FIG. 5 there is shown the inhibition by synthetic peptides of the binding of monoclonal antibody ISU25C1 (solid lines) or monoclonal antibody ISU19-A1 (dofted lines) to PRRSV in ELISA. Serial five-fold dilutions of synthetic peptide S4 were used (filled squares). Unrelated peptide P7 was used with monoclonal antibody ISU25C1 as a negative control (filled circles). Results are expressed as the percentage of the anti PRRSV-specific signal obtained with each monoclonal antibody in wells to which no peptides were added. Values are the average of four readings.
To perform competition assays, several dilutions of peptide S4 and irrelevant peptide […] (shown in Table 1) were incubated with Monoclonal antibody ISU25-C1 for 1.5 hours at room temperature. Then, the antibody-peptide mix was added to PRRSV-coated ELISA strips (IDDEX Lab., Inc; Westbrook, Me.) for 45 minutes.

[6] = system: Monoclonal antibody ISU25-C1; test: Phage-ELISA with monoclonal antibody ISU25-C1; type: binding, mouse
Description: (§5) In FIG. 4 there is shown the reactivity of swine sera and monoclonal antibodies to selected cloned phages. Results are expressed as corrected OD405 (OD of selected phage-OD unselected phage library NS: serum from pig #6 with a neutralizing titer >64 and ELISA s/p ratio 1.053 NNS: serum from pig #5 with a neutralizing titer <4 and ELISA s/p ratio 0.652.
(§6) To detect peptides on the coat of phages, individual clones shown in FIG. 3 were propagated for 4.5 hours in E. coli ER2738 and then they were purified by two precipitations with PEG 8000. […] phages were added to each well of a Immulon 2HB (Dynex Technologies Inc, Chantilly, Va.) in sodium bicarbonate 0.1 M pH 8.6, and incubated for 16 hours at room temperature in a humidified chamber. Plates were blocked with PBS containing 10% milk for three hours at room temperature. Swine sera or Monoclonal antibody from the tissue culture supernatant were preadsorbed in PBS containing 10% non-fat milk added with 100 μg/ml of E. coli proteins. In addition, 10^10 pfu/ml of non-selected phages were added to the antibodies to reduce background caused by anti M-13 activity found in animal sera. The plates were washed six times with PBS 0.05% Tween-20 and the peroxidase-conjugated secondary antibody (1:500) was added for 30 minutes at 37 C. […] The results were read in a spectrophotometer at 405 nm.

swine anti-PRRSV NS = test: Phage-ELISA with swine anti-PRRSV neutralizing serum; type: binding
Description: as §5, §6

swine anti-PRRSV NNS = test: Phage-ELISA with swine anti-PRRSV non-neutralizing serum; type: binding
Description: as §5, §6

[7] = system: sera from hyperimmunized pigs; test: Phage-ELISA with sequential sera from hyperimmunized pigs; type: binding, swine; settings: early sera (20 days pi), ELISA positive, negative or low SN titer
Description: Epitopes A and B are represented by phage clones 01 and S2-4 (FIG. 1), respectively. ELISA s/p ratio was determined as the difference in the optical density (OD) of the test serum between viral and control antigens divided by the difference in the OD of the positive reference between viral and control antigens.
as §6, with “proteins.” for “proteins. In addition, 10^10 pfu/ml of non-selected phages were added to the antibodies to reduce background caused by anti M-13 activity found in animal sera. The plates were washed six times with PBS 0.05% Tween-20 and the peroxidase-conjugated secondary antibody (1:500) was added for 30 minutes at 37 C.”
Anti-PRRSV neutralizing antibodies appear late after infection and they are mainly directed against GP5. To determine a correlation between time post-infection and epitope recognition, we evaluated sera from several pigs at two different times of the hyperimmunization protocol as shown in FIG. 9.

Sequence | recognition by S2 affinity purified antibodies in ELISA [1] | recognition by R4N/R1N-affinity purified antibodies in ELISA [2] | recognition by swine neutralizing serum in peptide ELISA (swine neutralizing serum) | also measured
ALVNIPISNNLAC [peptide R4N] | did not recognize | recognized | recognized | 
SGSGANNSSSSGSGSIYNC [peptide S3, peptide S2 with motif SHF replaced by GSG] | did not recognize |  | completely abrogated | inhibition of the binding of anti-peptide S2-affinity purified antibodies to clone S2-4 [3]: inhibited the binding
SGSGANNSSSSHFQSIYNC [peptide S2, GP5 residues 27-44 with residues 27-30 changed to SGSG] | recognized | did not recognize | still recognized | ELISA signal (OD) with anti-peptide S2 affinity-purified antibodies [1]: 0.336 OD; recognition by Monoclonal antibody ISU25-C1 in peptide ELISA [4]: does not recognize; inhibition of the binding of anti-peptide S2-affinity purified antibodies to clone S2-4 [3]: inhibited to a greater extent than peptide S3
SGSGANSNSSSHLQLIYNLTLCELC [S6] |  |  |  | ELISA signal (OD) with anti-peptide S2 affinity-purified antibodies [1]: 0.369 OD
SGSGSNNSSSSAC [peptide ΔR1N, R1N with residues 27-30 VLVN changed to irrelevant motif SGSG] |  | did not recognize | abrogated | 
SHITSYPAYFWC [peptide S4, mimotope for ISU25-C1] |  |  | do not recognize | inhibition of the binding of Monoclonal antibody ISU25-C1 to PRRSV [5]: 60%; recognition by Monoclonal antibody ISU25-C1 in peptide ELISA [4]: recognized
VLVNANNSSSSHFQSIYNC [peptide S1, residues 27 to 43 of GP5 of IA 97-7895, contains motifs VLVN and HXXXIYN] | recognized | recognized | strongly recognized | 
VLVNSNNSSSSAC [peptide R1N, aminoacids 27-38 of the GP5 of PRRSV IA 97-7895 isolate] | did not recognize | recognized | recognized | 
YKNTHLDLIYNA [phage clone S2-4] |  |  |  | recognition of phage-displayed peptide by Monoclonal antibody ISU25-C1 [6]: not by swine non-neutralizing serum or by monoclonal antibody ISU25-C1; recognition of phage-displayed peptide by swine anti-PRRSV neutralizing serum (NS) (swine anti-PRRSV NS): strongly recognized; recognition of phage-displayed peptide by swine anti-PRRSV non-neutralizing serum (NNS) (swine anti-PRRSV NNS): not by swine non-neutralizing serum; reactivity of sera obtained shortly after the beginning of the immunization [7]: very weakly
